# What was measured:
# 5-HT1A receptors = target: T1, 5-HT1A receptors (Rattus norvegicus, UniProt P19327); assay: 5-HT1A receptor binding: displacement of [3H]8-hydroxy-2-(dipropylamino)tetralin in rat hippocampal tissue; set-up: species or system male Charles River CD rats; conditions: 0.5 h, 10^-6 M, [3H]-OH-DPAT 2 nM, 25° C., 30 minutes, read-out: % displacement at 10^-6 M, 5-HT1A (column headed Ki (nM) value for 5-HT1A)
# T1 construct: Hippocampal tissue from the brains of male Charles River CD rats; from tissue; host or cells: hippocampal tissue from brains of male Charles River CD rats
# T1 sequence (P19327 1-422): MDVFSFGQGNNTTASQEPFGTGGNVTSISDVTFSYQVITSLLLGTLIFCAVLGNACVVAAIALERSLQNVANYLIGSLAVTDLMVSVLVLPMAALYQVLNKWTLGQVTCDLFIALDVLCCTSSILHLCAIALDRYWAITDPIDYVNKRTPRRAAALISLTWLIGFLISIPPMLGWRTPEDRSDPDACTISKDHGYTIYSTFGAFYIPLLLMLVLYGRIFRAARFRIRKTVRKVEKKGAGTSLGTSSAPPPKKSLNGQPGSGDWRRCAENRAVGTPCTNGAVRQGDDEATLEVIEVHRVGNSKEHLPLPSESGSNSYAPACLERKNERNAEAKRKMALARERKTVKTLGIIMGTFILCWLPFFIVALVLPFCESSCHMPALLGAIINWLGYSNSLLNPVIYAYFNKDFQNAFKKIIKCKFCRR
# Description: Hippocampal tissue from the brains of male Charles River CD rats weighing between 150-250 g were homogenised in ice-cold 50 mM Tris-HCl buffer (pH 7.7) when measured at 25° C., 1:40 w/v) and centrifuged at 30,000 g at 4° C. for 10 minutes. The pellet was rehomogenised in the same buffer, incubated at 37° C. for 10 minutes and centrifuged at 30,000 g at 4° C. for 10 minutes. The final pellet was resuspended in 50 mM Tris-HCl buffer (pH 7.7) containing 4 mM CaCl2, 0.1% L-ascorbic acid and 10 μM pargyline hydrochloride (equivalent to 6.25 mg wet weight of tissue/ml) and used immediately in the binding assay. Aliquots (400 μl; equivalent to 2.5 mg wet weight of tissue/tube) of this suspension were added to tubes containing the ligand (50 μl; 2 nM) and distilled water (50 μl; total binding) or 5-HT (50 μl; […]; non-specific binding) or test compound (50 μl; at a single concentration of 10^-6 M or at 10 concentrations ranging from 10^-11 -10^-3 M). The ligand was [^3 H]8-hydroxy-2-(dipropylamino)tetralin ([^3 H]-OH-DPAT) and the mixture was incubated at 25° C. for 30 minutes before the incubation was terminated by rapid filtration.
# The filters were washed with ice-cold Tris-HCl buffer and dried. The filters were punched out into vials, scintillation fluid added and radioactivity determined by liquid scintillation counting. The percentage displacement of specific binding of the tritiated ligand was calculated for the single concentration (10^-6 M) of test compound. Displacement curves were then produced for those compounds which displaced ≥50% of specific binding of the tritiated ligand at 10^-6 M using a range of concentrations of the compound. The concentration which gave 50% inhibition of specific binding (IC50) was obtained from the curve. The inhibition coefficient Ki was then calculated using the formula [formula]
# (§1) in which [ligand] is the concentration of the tritiated ligand used and KD is the equilibrium dissociation constant for the ligand.
# (§2) The % figures in Table 1 are for % displacement at 10^-6 M.
# [1] = system: D2-like dopamine receptors; assay: D2-like dopamine receptor binding: displacement of tritiated (S)-sulpiride in rat striatal tissue; set-up: species or system male Charles River CD rats; conditions: tritiated (S)-sulpiride 1 nM, 4° C., 40 minutes
# Description: Striatal tissue from the brains of male Charles River CD rats weighing between 140-250 g were homogenised in ice-cold 50 mM Tris-HCl buffer (pH 7.7 when measured at 25° C.) and centrifuged at 40,000 g for 10 minutes. The pellet was resuspended in Tris salts buffer (50 mM Tris-HCl buffer containing 120 mM NaCl, 5 mM KCl, 2 mM CaCl2 and 1 mM MgCl2 with the addition of 6 mM ascorbic acid; pH 7.7 when measured at 25° C.), and again centrifuged at 40,000 g for 10 minutes. The final pellet was stored at -80° C. Before each test the pellet was resuspended in Tris salts buffer (equivalent to 2 mg wet weight of tissue/ml). Aliquots (720 μl; equivalent to 1.44 mg wet weight of tissue/tube) of this suspension were then added to tubes containing the ligand (40 μl; 1 nM) and Tris salts buffer (40 μl; total binding) or spiroperidol (40 μl; 10 nM; non-specific binding) or test compound (40 μl; at a single concentration of 10^-6 M or at 6 concentrations ranging from 10^-11 -10^-4 M). The ligand was tritiated (S)-sulpiride and the mixture was incubated at 4° C. for 40 minutes before the incubation was terminated by rapid filtration.
# The filters were washed with ice-cold Tris-HCl buffer and dried. The filters were punched out in to vials, scintillation fluid added and were left for about 20 hours before being counted by scintillation spectrophotometry. The percentage displacement of specific binding of the tritiated ligand was calculated for the single concentration (10^-6 M) of test compound. Displacement curves were then produced over a range of concentrations for those compounds which displaced ≥50% of specific binding of the tritiated ligand at 10^-6 M. The concentration which gave a 50% inhibition of specific binding (IC50) was obtained from the curve. The inhibition coefficient Ki was then calculated using the formula [formula]
# as §1, §2
SMILES,inhibition at 1 µM (5-HT1A receptors),"% displacement at 10^-6 M, D2-like (column headed Ki (nM) value for D2-like) [1]"
"CC(=O)Nc1ccc(S(=O)(=O)NCC2CCN(C[C@H]3COc4ccc5[nH]ccc5c4O3)CC2)cc1 [Example 3, (S)-4-acetamido-N-{[1-(2,3-dihydro-7H-1,4-dioxino[2,3-e]indol-2-ylmethyl)piperid-4-yl]methyl}benzenesulphonamide]",97%,105%
"O=S(=O)(NCC1CCN(C[C@H]2COc3ccc4[nH]ccc4c3O2)CC1)c1ccccn1 [Example 2, (S)-N-{[1-(2,3-dihydro-7H-1,4-dioxino[2,3-e]indol-2-ylmethyl)piperid-4-yl]methyl}pyridine-2-sulphonamide]",99%,105%
"O=S(=O)(NCC1CCN(C[C@H]2COc3ccc4scc(Cl)c4c3O2)CC1)c1ccccn1 [Example 1, (S)-N{[1-(9-chloro-2,3-dihydrothieno[3,2-f][1,4]benzodioxin-2-ylmethyl)piperid-4-yl]methyl}pyridine-2-sulphonamide]",98%,106%

# Reference: patent US6218405A, “Heteroarylsulfonamide derivatives and pharmaceutical compositions containing them” (KNOLL Aktiengesellschaft, priority 1996, dated 2001)
